Data on one compound can be found in article PMC7297445, “Pharmacokinetic/Pharmacodynamic Determination and Preclinical Pharmacokinetics of the β-Lactamase Inhibitor ETX1317 and Its Orally Available Prodrug ETX0282” (ACS Infectious Diseases, 2020).

Read-outs that look alike come from different tables or passages of the source.

Data set [1] can be described thus: Human PK prediction (allometric scaling). Particulars: for CL/F / V/F: predicted human. The source says: The methodology utilized for prediction of human PK of ETX1317 was consistent with methods used in support of similar chemotypes such as avibactam and ETX2514.[43] Human predictions for volume of distribution (Vd,ss) and clearance (CL) were within 2-fold of observed mean data obtained in Phase 1 studies, with renal clearance as the predominant clearance mechanism.[44],[45] Pharmacokinetic and excretion data from rats, dogs, and monkeys were used collectively for the projection of ETX1317 PK. Liver S9 incubations were also performed across all species (including human) to confirm consistent conversion of ETX0282 to ETX1317 at projected dose levels of ETX0282.[42] Human PK prediction of ETX1317 was completed using single species allometry for volume of distribution from dog PK and dog and monkey single species scaling using liver blood flow to predict non-renal clearance (CLNR).[46] […] While urinary excretion of ETX1317 was lower in dogs relative to monkeys and rats, human renal clearance (CLR) was predicted using dog-human renal correlation,[47] as this method has been highly predictive for compounds that are generally eliminated via renal excretion. The elimination half-life was estimated based upon the combined use of predicted parameters for clearance and volume of distribution, where T1/2 = ln 2*Vd,ss/CLtotal. Allometric scaling predicted human Vd,ss of 0.35 L/kg.
Based upon the non-clinical PK data, a range of 60–80% bioavailability and a moderate absorption rate of 0.5–1.0 h^–1 have been considered for humans. In consideration of these predicted parameters, mean percent fT > CT of 1 μg/mL (2× MIC of 0.5 μg/mL) estimates for a 500 mg ETX1317 equiv q12h dose of ETX0282 are summarized in Table S3.

The nature of data set [2]: Intravenous pharmacokinetics of ETX1317. To be noted: male, dog, i.v. 1 mg/kg. It is filed as in vivo. As to the method:
Intravenous pharmacokinetics of ETX1317 investigated in jugular vein cannulated male Sprague–Dawley rats (Charles River Laboratories, n = 3/route) at a dose of 10 mg/kg formulated in 0.9% saline. Oral pharmacokinetics of ETX0282 was evaluated at a 10 mg/kg equivalent dose of ETX1317 formulated in 25:75 PEG 400:WFI. The pH of each formulation was verified to fall within a range of 4–7 and were confirmed to be in solution prior to dosing. Potency was verified by LC/MS/MS. Dose volumes were 5 and 10 mL/kg for ETX1317(i.v.) and ETX0282(p.o.), respectively for rats. In both dog (male, 3/route) and monkey (male, 3/route) studies, i.v. and p.o. doses were formulated on 25:75 PEG 400:WFI (pH ∼5) and administered at a dose of ∼1 mg/kg. Dose volume was 1 mL/kg for both routes in dogs and monkeys with the i.v. dose infused over 15 min. For oral doses, gavage tubes were flushed with 10 mL after administration of the dose. i.v. doses were sterile-filtered through 0.22 μm PVDF membrane prior to administration into the cephalic vein.
Blood sampling (∼1 mL) for dogs and monkeys was carried out via venipuncture of the jugular vein at the following time points:
i.v.: pre-dose, 0.083, 0.25 (prior to end of infusion), 0.5, 1, 1.5, 2, 4, 6, 8, 12, and 24 h post-dose
Blood samples were centrifuged at 3200 rpm for 10 min at approximately 5 °C. Plasma samples (500 μL) were transferred to 96-well plate tubes (MatrixTech, 0.5 mL). An equal amount (500 μL) of SIGMAFAST protease inhibitor solution (1 tablet dissolved in 10 mL distilled water, Sigma-Aldrich Part No. S8820) was added as a preservative to the 96-well plate tubes resulting in a 1:1 dilution. Diluted plasma samples were stored at −80 ± 10 °C.
Urine collection was collected directly into Nalgene bottles placed under metabolism cages with frozen ice packs to chill urine over the collection interval. Urine was collected 0–12, and 12–24 h post-dose. Following collection of each urine sample, the total urine weight was recorded and 3 mL aliquots were retained for LC/MS/MS analysis.
Non-compartmental analysis of time vs concentration data for ETX1317, ETX0282, CPD, and CPDP was completed using WinNonlin 8.1 (Pharsite Corporation, Mountain View CA). The maximum concentration (Cmax) was the highest observed concentration; Tmax was the earliest time at which Cmax occurred; and the elimination half-life was estimated as ln 2/kel, where kel is the elimination rate constant derived from the slope of the log concentration versus time profile. The area under the concentration–time curve from 0 h to the last time point (AUC0-tlast) was calculated by linear trapezoidal approximation. Clearance (CL) was estimated as Dose/AUC0-tlast and the steady state volume of distribution (Vd,ss) was estimated as CL* MRT, where MRT = AUMC/AUC (MRT = mean residence time and AUMC = area under the moment curve). Oral bioavailability (F) was determined from ETX1317 concentrations and normalizing doses to free acid equivalence, where F = AUCp.o.*(dosei.v.)/AUCi.v.*(dosep.o.).

As to `CC1=C[C@@H](C(N)=O)N2C[C@@H]1N(O[C@H](F)C(=O)O)C2=O` [ETX1317], the predicted human half-life in data set [1] (T1/2 = ln 2*Vd,ss/CLtotal) is 72 to 96 min. Also, in data set [1] (F% 60), the CL/F (as a rule, the apparent clearance, not corrected for the fraction that reaches the circulation) is 17.6 to 23.7 L/h and the V/F was 41 L. Also, in data set [1] (F% 70), the apparent clearance CL/F was 15.1 to 20.3 L/h and the V/F is 35 L. In data set [1] (F% 80), the CL/F is 13.2 to 17.8 L/h and the V/F was 31 L. In addition, in data set [2] (plasma), the AUC – broadly, concentration integrated over time – was found to be 2760 ± 340 ng·h/mL; the concentration peaked (Cmax) at 2270 ± 490 ng/mL; the half-life (in general, how long it takes for the measured level to halve) was 48 ± 6 min. Moreover, the clearance in data set [2] (plasma, read-out: CL) worked out at 5.7 ± 0.7 mL/min/kg. In data set [2] (plasma, read-out: Vd,ss), the distribution volume (Vd) (in general, the apparent volume that relates the amount in the body to the concentration in plasma or blood) amounted to 0.38 ± 0.05 L/kg. Moreover, the clearance in data set [2] (urine and plasma, read-out: renal CL) turned out to be 1.1 ± 0.3 mL/min/kg.
